Values joined by “and” are separate entries in the source; they are usually repeats but may differ in a detail not shown here. Identical values can stand only once. Counter-ions that a name gives are not always drawn.
What was measured:
[1] = system: Acute promyelocytic leukemia NB4 cells; assay: Cell growth (CellTiter-Fluor cell viability assay); assay type: cell-based; conditions: Homo sapiens, NB-4, 48 h; for IC50: range classes, read-out: IC50 [μM], cell growth inhibitory assay
Excerpt: CellTiter-Flor® (Promega) is as a nonlytic, single-reagent-addition fluorescence assay that measures the relative number of living cells in a culture population after experimental manipulation. The CellTiter-Fluor™ Cell Viability Assay measures the conserved and constitutive protease activity within live cells and therefore acts as a marker for cell viability.
Acute promyelocytic leukemia NB4 cells, (obtained from the Deutsche Sammlung von Mikroorganismen and Zellkulturen) in exponential growth, were incubated for 48 h with different concentrations of the inhibitors. After 48 h a volume of CellTiter-Fluor® Reagent equal to one fifth of volume of cell culture medium was added. The content was mixed and incubates for at least 90 min at 37° C. degree to obtain a stable signal. The fluorescence was recorded using an excitation wavelength of 360 nm and an emission at 535 nm. The IC50 was calculated using GraphPad Software.

[2] = biological target: T1, human recombinant KDM1A (LSD1)/CoRest (Homo sapiens, UniProt O60341); assay: Assay of enzyme inhibition of KDM1A (LSD1), Amplex UltraRed/peroxidase coupled; assay type: biochemical; conditions: 15 min preincubation, 4.5 μM mono-methylated H3-K4 peptide, range classes, read-out: IC50 [μM], KDM1A inhibition assay
T1 construct: made in house; host or cells: E. coli
Description: The experiments were performed using a mono-methylated H3-K4 peptide containing 21 amino acids (custom synthesis done by Thermo Scientific) as substrate and in a 50 mM TRIS, pH 8, 0.05 mg/ml BSA buffer.
The demethylase activity was estimated under aerobic conditions and at RT by measuring the release of H2O2 produced during the catalytic process by the Amplex® UltraRed detection system coupled with peroxidase assay. Briefly, a fixed amount of KDM1A/CoRest complex was incubated at RT for 15 minutes in the absence and/or the presence of various concentrations of inhibitor (e.g. from 0 to 100 μM, depending on the inhibitor strength) and of Amplex® UltraRed detection system coupled with peroxidase assay. The inhibitors were tested twice in duplicates at each concentration. […] The conversion of the Amplex® Ultra Red reagent to resorufin was monitored in continuous by fluorescence (excitation at 540 nm, emission at 590 nm) using a microplate reader (Infinite 200, Tecan). Arbitrary units were used to measure the level of H2O2 produced in the absence and/or in the presence of inhibition. The maximum demethylase activity of KDM1A/CoRest was obtained in the absence of inhibitors and corrected for background fluorescence in the absence of KDM1A/CoRest. The IC50 was calculated using GraphPad Software.

IC50 [1] | IC50 [2] | SMILES | inhibition at 100 µM ([1]; 100 μM, read-out: inhibition at 100 μM, cell growth inhibitory assay)
– | – | N[C@@H]1C[C@H]1c1ccccc1 (racemic) [tranylcypromine, reference compound] | 10%
10 to 50 µM | 0.1 to 1 µM | N[C@]1(Cc2ccccc2)C[C@H]1c1ccc(Br)cc1 (relative stereo) [Example A-13, trans-1-benzyl-2-(4-bromophenyl)cyclopropanamine hydrochloride] | –
10 to 50 µM | – | CC[C@@]1(N)C[C@H]1c1ccc2ncccc2c1 (relative stereo) [Example A-14, trans-1-ethyl-2-(6-quinolyl)cyclopropanamine dihydrochloride] | –
10 to 50 µM | 0.1 to 1 µM | N[C@]1(Cc2ccc3ccccc3c2)C[C@H]1c1ccc(Br)cc1 (relative stereo) [Example A-29, trans-2-(4-bromophenyl)-1-(2-naphthylmethyl)cyclopropanamine hydrochloride] | –
10 to 50 µM | – | CC[C@@]1(N)C[C@H]1c1ccc(NC(=O)c2ccc3ccccc3c2)cc1 (relative stereo) [Example A-30, trans-N-[4-[2-amino-2-ethyl-cyclopropyl]phenyl]naphthalene-2-carboxamide hydrochloride] | –
10 to 50 µM | – | CC[C@]1(N)C[C@@H]1c1ccccc1NC(=O)c1cccc(NC(=O)OCc2ccccc2)c1 (relative stereo) [Example A-32, benzyl N-[3-[[2-[(trans)-2-amino-2-ethyl-cyclopropyl]phenyl]carbamoyl]phenyl]carbamate hydrochloride] | –
10 to 50 µM | 0.1 to 1 µM | CC[C@@]1(N)C[C@H]1c1cccc(NC(=O)c2cccc(NC(=O)OCc3ccccc3)c2)c1 (relative stereo) [Example A-33, benzyl N-[3-[[3-[(trans)-2-amino-2-ethyl-cyclopropyl]phenyl]carbamoyl]phenyl]carbamate hydrochloride] | –
10 to 50 µM | < 0.1 µM | CC[C@@]1(N)C[C@H]1c1ccc(NC(=O)c2cccc(Cl)c2)cc1 (relative stereo) [Example A-34, N-[4-[(trans-2-amino-2-ethyl-cyclopropyl]phenyl]-3-chloro-benzamide hydrochloride] | –
10 to 50 µM | < 0.1 µM | CC[C@@]1(N)C[C@H]1c1ccc(NC(=O)c2cccc(NC(=O)OCc3ccccc3)c2)cc1 (relative stereo) [Example A-37, benzyl N-[3-[[4-[(trans)-2-amino-2-ethyl-cyclopropyl]phenyl]carbamoyl]phenyl]carbamate hydrochloride] | –
≤ 10 µM | – | CC[C@@]1(N)C[C@H]1c1ccc(NC(=O)c2ccc(NC(=O)OCc3ccccc3)cc2)cc1 (relative stereo) [Example A-38, benzyl N-[4-[[4-[(trans)-2-amino-2-ethyl-cyclopropyl]phenyl]carbamoyl]phenyl]carbamate hydrochloride] | –
≤ 10 µM | < 0.1 µM | CC[C@@]1(N)C[C@H]1c1ccc(NC(=O)CCc2ccccc2)cc1 (relative stereo) [Example A-40, N-[4-[(trans)-2-amino-2-ethyl-cyclopropyl]phenyl]-3-phenyl-propanamide hydrochloride] | –
10 to 50 µM | 0.1 to 1 µM | N[C@]1(Cc2ccccc2)C[C@H]1c1ccc(OCc2ccccc2)cc1 (relative stereo) [Example A-43, trans-1-benzyl-2-(4-benzyloxyphenyl) cyclopropanamine hydrochloride] | –
≤ 10 µM | – | N[C@]1(Cc2ccc3ccccc3c2)C[C@H]1c1ccc(NC(=O)c2cccc(NC(=O)OCc3ccccc3)c2)cc1 (relative stereo) [Example A-45, benzyl N-[3-[[4-[(trans)-2-amino-2-(2-naphthylmethyl)cyclopropyl]phenyl]carbamoyl]phenyl] carbamate hydrochloride] | –
≤ 10 µM | < 0.1 µM | N[C@]1(Cc2ccc3ccccc3c2)C[C@H]1c1ccc(NC(=O)Cc2ccccc2)cc1 (relative stereo) [Example A-46, N-[4-[(trans-2-amino-2-(2-naphthylmethyl)cyclopropyl]phenyl]-2-phenyl-acetamide hydrochloride] | –
10 to 50 µM | < 0.1 µM | CC[C@@]1(N)C[C@H]1c1ccc(NC(=O)Cc2cccc3ccccc23)cc1 (relative stereo) [Example A-68, N-[4-trans-[2-amino-2-ethyl-cyclopropyl]phenyl]-2-(1-naphthyl) acetamide hydrochloride] | –
≤ 10 µM | 0.1 to 1 µM | N[C@]1(Cc2ccc3ccccc3c2)C[C@H]1c1ccc(NC(=O)c2ccc(NC(=O)OCc3ccccc3)cc2)cc1 (relative stereo) [Example A-70, benzyl N-[4-[[4-[trans-2-amino-2-(2-naphthylmethyl)cyclopropyl]phenyl]carbamoyl]phenyl]carbamate 2,2,2-trifluoroacetic acid] | –
≤ 10 µM | < 0.1 µM | CC[C@@]1(N)C[C@H]1c1ccc(NC(=O)c2cccc3ccccc23)cc1 (relative stereo) [Example A-71, N-[4-(trans-2-amino-2-ethyl-cyclopropyl)phenyl] naphthalene-1-carboxamide hydrochloride] | –
≤ 10 µM | – | Nc1ccc([C@@H]2C[C@]2(N)Cc2ccc3ccccc3c2)cc1 (relative stereo) [Example A-119, 4-[trans-2-amino-2-(2-naphthylmethyl)cyclopropyl]aniline 2,2,2-trifluoroacetic acid] | –
50 to 100 µM | – | N[C@@]1(CO)C[C@H]1c1ccccc1 (relative stereo) [Example B-2, [1-Amino-(cis)-2-phenyl-cyclopropyl]methanol] | –
– | < 0.1 µM | CC[C@]1(N)C[C@@H]1c1ccc(NC(=O)c2ccc(-c3ccccc3)cc2)cc1 [Example A-128, N-[4-[(1R,2S)-2-amino-2-ethyl-cyclopropyl]phenyl]-4-phenyl-benzamide hydrochloride] | –
50 to 100 µM | – | CC[C@@]1(NCc2c(OC)ccc3ccccc23)C[C@H]1c1ccccc1 [Example C-2, (1R,2S)-1-ethyl-N-[(2-methoxy-1-naphthyl)methyl]-2-phenyl-cyclopropanamine] | –
– | < 0.1 µM and 1 to 5 µM | CN1CCN(C(=O)CN[C@@]2(C)C[C@@H]2c2ccccc2)CC1 [Example C-3, 2-[[(1S,2R)-1-methyl-2-phenyl-cyclopropyl]amino]-1-(4-methylpiperazin-1-yl)ethanone dihydrochloride] | –
– | 0.1 to 1 µM | C[C@]1(NCC(=O)N2CC[C@H](N)C2)C[C@@H]1c1ccccc1 [Example C-5, 1-[(3S)-3-aminopyrrolidin-1-yl]-2-[[(1S,2R)-1-methyl-2-phenyl-cyclopropyl]amino] ethanone hydrochloride] | –
– | < 0.1 µM | CN1CCN(C(=O)CN[C@]2(C)C[C@H]2c2ccccc2)CC1 [Example C-25, 2-[[(1R,2S)-1-methyl-2-phenyl-cyclopropyl]amino]-1-(4-methylpiperazin-1-yl)ethanone 2,2,2-trifluoroacetic acid] | –
– | 1 to 5 µM | CN1CCN(C(=O)CN[C@]2(C)C[C@@H]2c2ccccc2)CC1 [Example C-26, 2-[[(1R,2R)-1-methyl-2-phenyl-cyclopropyl]amino]-1-(4-methylpiperazin-1-yl)ethanone 2,2,2-trifluoroacetic acid] | –

SMILES | IC50 [1] | IC50 [2] | inhibition at 100 µM ([1]; 100 μM, read-out: inhibition at 100 μM, cell growth inhibitory assay)
N[C@]1(Cc2ccccc2)C[C@H]1c1ccccc1 (relative stereo) [Example A-8, trans-1-benzyl-2-phenyl-cyclopropanamine hydrochloride] | 50 to 100 µM | – | –
N[C@]1(CCc2ccccc2)C[C@H]1c1ccccc1 (relative stereo) [Example A-11, trans-1-phenethyl-2-phenyl-cyclopropanamine hydrochloride] | 10 to 50 µM | – | –
CC[C@@]1(N)C[C@H]1c1ccc(Br)cc1 (relative stereo) [Example A-12, trans-2-(4-bromophenyl)-1-ethyl-cyclopropanamine hydrochloride] | 10 to 50 µM | 0.1 to 1 µM | –
N[C@]1(Cc2ccc3ccccc3c2)C[C@H]1c1ccccc1 (relative stereo) [Example A-15, trans-1-(2-naphthylmethyl)-2-phenyl-cyclopropanamine hydrochloride] | ≤ 10 µM | – | –
CC[C@@]1(N)C[C@H]1c1ccc(OC(F)(F)F)cc1 (relative stereo) [Example A-24, 1-ethyl-(trans)-2-[4-(trifluoromethoxy)phenyl] cyclopropanamine hydrochloride] | 50 to 100 µM | 1 to 5 µM | –
CC[C@@]1(N)C[C@H]1c1ccc(OCc2ccccc2)cc1 (relative stereo) [Example A-41, 2-(4-benzyloxyphenyl)- trans-1-ethyl-cyclopropanamine hydrochloride] | 10 to 50 µM | 0.1 to 1 µM | –
